How the values were obtained:
Assay in all cases: biochemical
Design in all cases: Thermo Fisher in vitro kinase panel, per cent inhibition of kinase activity at 10 uM
PTK6 (Brk) = PTK6 (Brk) (Homo sapiens, UniProt Q13882)
Experimental: (§1) Kinase profiling of SMER28 and analogs SMER28 and analogs were tested at 10 µM in a panel of 123 kinases at ThermoFisher Scientific. Follow-up of selected kinases for SMER28 and analogs was also performed at ThermoFisher Scientific. Data are shown in Supplementary Data 2 and 3. […] An inhibition of PIK3C could induce autophagy, mediated by signaling through the AKT/mTOR axis[45].

MYLK (MLCK) = MYLK (MLCK) (Homo sapiens, UniProt Q15746)
Experimental: as §1

ALK = ALK (Homo sapiens, UniProt Q9UM73)
Chain of ALK (Q9UM73 whole entry): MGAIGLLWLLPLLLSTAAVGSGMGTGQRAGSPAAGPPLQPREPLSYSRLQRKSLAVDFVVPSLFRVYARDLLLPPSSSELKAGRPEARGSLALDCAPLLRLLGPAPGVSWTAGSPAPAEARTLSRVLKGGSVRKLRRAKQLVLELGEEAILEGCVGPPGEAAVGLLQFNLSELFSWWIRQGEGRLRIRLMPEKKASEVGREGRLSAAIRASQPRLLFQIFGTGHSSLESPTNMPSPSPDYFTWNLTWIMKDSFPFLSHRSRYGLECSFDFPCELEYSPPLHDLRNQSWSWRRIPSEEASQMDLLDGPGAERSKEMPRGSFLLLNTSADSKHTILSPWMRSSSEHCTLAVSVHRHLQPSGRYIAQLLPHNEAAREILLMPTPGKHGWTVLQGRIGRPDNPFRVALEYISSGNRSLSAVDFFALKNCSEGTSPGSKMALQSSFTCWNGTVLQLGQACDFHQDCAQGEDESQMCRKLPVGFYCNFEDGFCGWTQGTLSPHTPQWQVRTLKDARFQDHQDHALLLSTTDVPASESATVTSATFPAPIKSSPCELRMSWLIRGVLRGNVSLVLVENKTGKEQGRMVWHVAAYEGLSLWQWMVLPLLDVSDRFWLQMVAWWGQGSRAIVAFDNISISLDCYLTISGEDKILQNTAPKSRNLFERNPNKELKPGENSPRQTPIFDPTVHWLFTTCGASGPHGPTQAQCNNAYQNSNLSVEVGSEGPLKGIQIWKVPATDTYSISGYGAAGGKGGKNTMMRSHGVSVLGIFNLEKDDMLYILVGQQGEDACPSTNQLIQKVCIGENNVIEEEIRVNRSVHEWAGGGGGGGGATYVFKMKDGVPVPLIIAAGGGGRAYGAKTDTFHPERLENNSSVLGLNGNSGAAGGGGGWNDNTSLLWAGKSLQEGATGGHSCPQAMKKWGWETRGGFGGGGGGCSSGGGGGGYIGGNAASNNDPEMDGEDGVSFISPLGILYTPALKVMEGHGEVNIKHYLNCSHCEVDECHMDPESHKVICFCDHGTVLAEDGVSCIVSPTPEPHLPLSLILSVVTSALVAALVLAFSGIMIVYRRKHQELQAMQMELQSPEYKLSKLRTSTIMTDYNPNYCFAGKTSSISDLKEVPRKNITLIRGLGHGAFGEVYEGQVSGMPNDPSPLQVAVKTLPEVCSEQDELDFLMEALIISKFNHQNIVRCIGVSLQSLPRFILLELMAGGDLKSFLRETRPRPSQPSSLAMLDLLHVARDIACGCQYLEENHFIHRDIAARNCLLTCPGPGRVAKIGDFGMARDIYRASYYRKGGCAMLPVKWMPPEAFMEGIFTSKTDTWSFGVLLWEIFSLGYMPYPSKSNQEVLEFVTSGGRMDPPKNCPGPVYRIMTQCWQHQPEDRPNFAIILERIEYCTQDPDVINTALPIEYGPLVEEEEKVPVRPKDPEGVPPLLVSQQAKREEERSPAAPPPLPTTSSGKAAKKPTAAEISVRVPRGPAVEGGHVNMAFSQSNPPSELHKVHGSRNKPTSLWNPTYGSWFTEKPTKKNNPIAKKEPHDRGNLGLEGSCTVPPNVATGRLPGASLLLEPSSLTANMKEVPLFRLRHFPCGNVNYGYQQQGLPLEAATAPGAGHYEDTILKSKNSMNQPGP
Experimental: as §1

MARK2 = MARK2 (Homo sapiens, UniProt Q7KZI7)
Chain of MARK2 (Q7KZI7 whole entry): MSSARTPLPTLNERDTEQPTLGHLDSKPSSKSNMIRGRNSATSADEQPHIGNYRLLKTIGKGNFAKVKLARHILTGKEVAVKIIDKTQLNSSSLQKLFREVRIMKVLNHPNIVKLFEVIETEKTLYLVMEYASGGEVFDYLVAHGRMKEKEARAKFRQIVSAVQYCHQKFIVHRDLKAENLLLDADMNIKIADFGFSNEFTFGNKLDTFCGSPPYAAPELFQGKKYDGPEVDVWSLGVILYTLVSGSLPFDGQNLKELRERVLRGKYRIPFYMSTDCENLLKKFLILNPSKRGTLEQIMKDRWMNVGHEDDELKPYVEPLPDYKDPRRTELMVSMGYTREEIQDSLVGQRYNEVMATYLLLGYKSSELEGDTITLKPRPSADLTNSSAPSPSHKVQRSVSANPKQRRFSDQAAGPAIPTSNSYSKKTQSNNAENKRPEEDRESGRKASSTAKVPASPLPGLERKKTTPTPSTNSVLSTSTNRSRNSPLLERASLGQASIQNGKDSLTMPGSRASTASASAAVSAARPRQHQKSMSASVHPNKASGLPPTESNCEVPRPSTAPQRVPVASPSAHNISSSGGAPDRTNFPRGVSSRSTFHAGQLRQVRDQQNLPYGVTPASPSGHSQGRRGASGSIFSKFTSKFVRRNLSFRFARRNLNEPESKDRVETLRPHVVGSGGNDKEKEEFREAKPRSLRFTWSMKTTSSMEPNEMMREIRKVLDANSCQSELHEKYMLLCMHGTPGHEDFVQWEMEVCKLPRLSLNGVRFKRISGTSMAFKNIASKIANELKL
Experimental: as §1

RPS6KA1 (RSK1) = RPS6KA1 (RSK1) (Homo sapiens, UniProt Q15418)
Experimental: as §1

FGFR1 = FGFR1 (Homo sapiens, UniProt P11362)
Experimental: as §1

GSK3B (GSK3 beta) = GSK3B (GSK3 beta) (Homo sapiens, UniProt P49841)
Experimental: as §1

FER = FER (Homo sapiens, UniProt P16591)
Experimental: as §1

PRKACA (PKA) = PRKACA (PKA) (Homo sapiens, UniProt P17612)
Experimental: as §1

BRAF = BRAF (Homo sapiens, UniProt P15056)
Experimental: as §1

PIM2 = PIM2 (Homo sapiens, UniProt Q9P1W9)
Chain of PIM2 (Q9P1W9 whole entry): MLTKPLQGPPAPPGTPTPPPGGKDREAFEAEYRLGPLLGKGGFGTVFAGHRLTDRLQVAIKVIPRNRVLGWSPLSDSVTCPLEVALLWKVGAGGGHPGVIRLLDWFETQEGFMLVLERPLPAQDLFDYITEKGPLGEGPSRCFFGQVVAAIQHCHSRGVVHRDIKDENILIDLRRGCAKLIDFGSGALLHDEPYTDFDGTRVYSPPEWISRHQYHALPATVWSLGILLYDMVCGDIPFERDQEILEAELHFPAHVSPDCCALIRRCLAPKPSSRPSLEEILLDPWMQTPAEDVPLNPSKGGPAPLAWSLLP
Experimental: as §1

ULK2 = ULK2 (Homo sapiens, UniProt Q8IYT8)
Chain of ULK2 (Q8IYT8 whole entry): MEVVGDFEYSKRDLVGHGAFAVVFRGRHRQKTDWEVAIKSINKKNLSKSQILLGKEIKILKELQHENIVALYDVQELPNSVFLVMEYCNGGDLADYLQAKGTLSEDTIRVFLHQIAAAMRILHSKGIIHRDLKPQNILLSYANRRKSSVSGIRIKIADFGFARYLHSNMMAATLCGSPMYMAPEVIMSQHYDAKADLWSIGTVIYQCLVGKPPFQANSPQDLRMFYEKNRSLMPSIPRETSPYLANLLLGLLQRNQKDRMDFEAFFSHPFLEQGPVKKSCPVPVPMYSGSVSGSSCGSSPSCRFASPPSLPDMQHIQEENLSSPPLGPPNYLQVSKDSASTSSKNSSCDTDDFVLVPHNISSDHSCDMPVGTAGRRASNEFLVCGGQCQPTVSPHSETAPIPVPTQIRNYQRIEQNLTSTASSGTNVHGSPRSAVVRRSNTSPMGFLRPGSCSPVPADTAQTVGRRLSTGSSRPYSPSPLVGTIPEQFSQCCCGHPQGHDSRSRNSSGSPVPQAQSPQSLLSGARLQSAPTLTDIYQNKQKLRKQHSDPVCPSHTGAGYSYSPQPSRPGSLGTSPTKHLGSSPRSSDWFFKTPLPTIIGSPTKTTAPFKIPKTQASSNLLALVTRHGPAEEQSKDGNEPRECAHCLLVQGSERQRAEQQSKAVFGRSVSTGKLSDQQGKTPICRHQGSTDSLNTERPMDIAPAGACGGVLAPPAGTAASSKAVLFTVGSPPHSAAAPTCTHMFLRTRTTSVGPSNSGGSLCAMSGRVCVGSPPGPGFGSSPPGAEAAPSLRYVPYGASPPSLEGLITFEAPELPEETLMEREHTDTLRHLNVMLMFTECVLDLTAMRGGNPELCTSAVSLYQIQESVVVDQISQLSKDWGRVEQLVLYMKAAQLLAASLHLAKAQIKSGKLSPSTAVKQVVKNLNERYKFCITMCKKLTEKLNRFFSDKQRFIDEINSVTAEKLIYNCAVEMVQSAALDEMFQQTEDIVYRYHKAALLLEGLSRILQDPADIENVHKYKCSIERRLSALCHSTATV
Experimental: as §1

RPS6KA5 (MSK1) = RPS6KA5 (MSK1) (Homo sapiens, UniProt O75582)
Experimental: as §1

PI4KB (PI4K beta) = PI4KB (PI4K beta) (Homo sapiens, UniProt Q9UBF8)
Experimental: as §1

DNA-PK = molecular target: T1, DNA-PK (Homo sapiens, UniProt P78527)
T1 construct: gene PRKDC
Experimental: as §1

INSRR (IRR) = INSRR (IRR) (Homo sapiens, UniProt P14616)
Experimental: as §1

ROS1 = ROS1 (Homo sapiens, UniProt P08922)
Experimental: as §1

FYN = FYN (Homo sapiens, UniProt P06241)
Experimental: as §1

EPHB4 = EPHB4 (Homo sapiens, UniProt P54760)
Experimental: as §1

CSNK2A2 (CK2 alpha 2) = CSNK2A2 (CK2 alpha 2) (Homo sapiens, UniProt P19784)
Experimental: as §1

ROCK1 = ROCK1 (Homo sapiens, UniProt Q13464)
Experimental: as §1

SRPK1 = SRPK1 (Homo sapiens, UniProt Q96SB4)
Experimental: as §1

ABL1 = ABL1 (Homo sapiens, UniProt P00519)
Experimental: as §1

CHEK1 (CHK1) = CHEK1 (CHK1) (Homo sapiens, UniProt O14757)
Experimental: as §1

MKNK2 (MNK2) = MKNK2 (MNK2) (Homo sapiens, UniProt Q9HBH9)
Chain of MKNK2 (MNK2) (Q9HBH9 whole entry): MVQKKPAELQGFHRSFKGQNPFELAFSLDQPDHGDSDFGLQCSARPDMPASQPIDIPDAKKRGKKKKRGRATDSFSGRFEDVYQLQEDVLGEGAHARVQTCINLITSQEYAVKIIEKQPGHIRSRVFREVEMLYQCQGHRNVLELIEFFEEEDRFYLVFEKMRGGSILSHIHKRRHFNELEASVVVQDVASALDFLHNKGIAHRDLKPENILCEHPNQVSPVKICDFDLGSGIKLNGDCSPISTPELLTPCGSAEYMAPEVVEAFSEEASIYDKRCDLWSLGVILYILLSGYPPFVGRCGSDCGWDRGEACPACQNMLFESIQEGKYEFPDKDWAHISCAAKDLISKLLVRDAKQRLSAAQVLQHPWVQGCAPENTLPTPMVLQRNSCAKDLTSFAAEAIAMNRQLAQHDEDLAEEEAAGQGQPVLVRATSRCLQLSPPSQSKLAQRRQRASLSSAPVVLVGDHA
Experimental: as §1

PRKCE (PKC epsilon) = PRKCE (PKC epsilon) (Homo sapiens, UniProt Q02156)
Chain of PRKCE (PKC epsilon) (Q02156 whole entry): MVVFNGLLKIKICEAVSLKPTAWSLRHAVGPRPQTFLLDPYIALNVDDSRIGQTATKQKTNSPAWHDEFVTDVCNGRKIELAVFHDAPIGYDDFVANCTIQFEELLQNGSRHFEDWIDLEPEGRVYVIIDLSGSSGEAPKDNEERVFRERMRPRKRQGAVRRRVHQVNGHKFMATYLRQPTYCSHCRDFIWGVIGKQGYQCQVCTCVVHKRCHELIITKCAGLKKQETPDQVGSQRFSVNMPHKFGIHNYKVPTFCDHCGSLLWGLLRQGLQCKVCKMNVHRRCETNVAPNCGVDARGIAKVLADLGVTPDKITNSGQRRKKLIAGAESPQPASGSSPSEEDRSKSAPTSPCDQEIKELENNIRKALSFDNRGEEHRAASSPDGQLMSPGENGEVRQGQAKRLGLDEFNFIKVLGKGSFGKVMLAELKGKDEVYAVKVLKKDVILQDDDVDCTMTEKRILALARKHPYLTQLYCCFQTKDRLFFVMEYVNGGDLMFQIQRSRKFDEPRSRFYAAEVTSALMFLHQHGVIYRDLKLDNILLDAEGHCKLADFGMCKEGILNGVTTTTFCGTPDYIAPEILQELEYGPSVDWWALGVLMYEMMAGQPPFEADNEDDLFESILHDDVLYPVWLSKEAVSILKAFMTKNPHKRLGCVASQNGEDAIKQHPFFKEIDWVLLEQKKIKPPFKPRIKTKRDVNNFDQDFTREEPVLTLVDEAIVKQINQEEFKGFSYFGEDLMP
Experimental: as §1

C=CCNc1ncnc2ccc(Br)cc12 [SMER28] gave an inhibition at 10 µM (PTK6 (Brk)) of 0%, an inhibition at 10 µM (MYLK (MLCK)) of 12% and an inhibition at 10 µM (ALK) of 25%. The inhibition at 10 µM (MARK2) was 9%, the inhibition at 10 µM (RPS6KA1 (RSK1)) was 21% and the inhibition at 10 µM (FGFR1) was 27%. For the same compound, the inhibition at 10 µM (GSK3B (GSK3 beta)) was 24%, the inhibition at 10 µM (FER) was 16% and the inhibition at 10 µM (PRKACA (PKA)) was 10%. For the same compound, the inhibition at 10 µM (BRAF) was 13%, the inhibition at 10 µM (PIM2) was -15% and the inhibition at 10 µM (ULK2) was 3%. It also gave an inhibition at 10 µM (RPS6KA5 (MSK1)) of -3%, an inhibition at 10 µM (PI4KB (PI4K beta)) of 66% and an inhibition at 10 µM (DNA-PK) of 37%. It also gave an inhibition at 10 µM (INSRR (IRR)) of 5%, an inhibition at 10 µM (ROS1) of 26% and an inhibition at 10 µM (FYN) of 9%. It also gave an inhibition at 10 µM (EPHB4) of -1%, an inhibition at 10 µM (CSNK2A2 (CK2 alpha 2)) of 10% and an inhibition at 10 µM (ROCK1) of -13%. It also gave an inhibition at 10 µM (SRPK1) of 5%, an inhibition at 10 µM (ABL1) of 11% and an inhibition at 10 µM (CHEK1 (CHK1)) of -8%. The inhibition at 10 µM (MKNK2 (MNK2)) was 32% and the inhibition at 10 µM (PRKCE (PKC epsilon)) was 18%.
